According to US4966962A, “Reverse analogue of actinomycin D” (Trustees of Boston University, priority 1988, dated 1990):
*1 amine or outer side, *2 acyl side, *3 side chain or, on linkers, in order; H or OH if unused. Where a SMILES comes first, the peptide text is derived from it. Bridges are numbered along the chain shown (N, C = ends). Roman numbers before positions name the chains, in order. [ ]: non-standard residue; d: D form. Actinocin(9to1) = Cc1c2oc3c(C)ccc(C(=O)[*:1])c3nc-2c(C(=O)[*:2])c(N)c1=O; NMeV = CN[C@H](C(=O)O)C(C)C; Sar = CNCC(=O)O

What was measured:
[1] = system: supercoiled closed-circular pBR322 DNA; experiment: Cleavage of closed circular pBR322 DNA; format: biochemical; settings: for Percentage of closed circular pBR322 DNA cleaved: 20° C., 1 h, Na2S2O4, FeCl2
Method: The cleavage of DNA was followed by monitoring of the conversion of supercoiled closed-circular pBR322 DNA to open-circular DNA (analyzed by agarose gel electrophoresis and quantitated by staining with 0.5 ug/mL of ethidium bromide for 30 min and densitometry; (Table II). SAD and RAD show strong DNA-cleaving ability in the presence of sodium hydrosulfite and ferrous chloride. Presumably, sodium hydrosulfite acts as a reducing agent and regenerates Fe(II) from Fe(III) to produce a continuous source of the active metal ion. When the DNA-cleaving reaction with the analogues was performed at 20° C., the ratio of cleaved DNA (open circular form DNA versus closed circular DNA) was almost maximum within 1 h. […] Cleavage of DNA by the analogues is aided by the actinomycin chromopeptide moiety, which acts as a site-specific binder to DNA, and is effected by the aminoquinone function which is chelated to the ferrous ion during the process, and this is the likely candidate which generates the radical species.
Plasmid DNA pBR322 (0.5 ug) was dissolved in /8 μL of a reaction buffer (5 mM […], 10 mM Tris-HCl). To this solution, 1 μL of the 10 mM aqueous solution of the agent containing 1 mM FeCl2 was added. The mixture was incubated for 0.5-2 h at 20° or 37° C. Then, the incubation mixture was mixed with 10 uL of sample loading buffer (50% glycerin in 2 X Boyer's buffer containing 0.01% bromophenol blue). Finally, 5 uL of the mixture was analyzed by 0.7% agarose gel electrophoresis (120 V, Boyer's buffer; the migration distance of bromophenol blue was 5.0 cm). The gel was stained with […] of ethidium bromide and then quantitated by densitometry.
^a Ten microliters of 200 u M pBR322 DNA nucelotides in UM 10 mM
TrisHCl (pH 7.8) and 50 mM NaCl, containing 4 mM Na2 --S2
O4 and 100 μM FeCl2, was incubated with drug concentration a
20° C. for 1 h; the reaction mixture was kept saturated with air
throughout the incubation period.
^b Percentage of DNA was calculated from the amounts of openand
closedcir- cular DNA in the incubation mixture.

[2] = Metabolism in tumor cell homogenate (T); format: in vitro ADME, murine; settings: P388 homogenate (T), 37° C., 16 h
Method: In this respect, actinomycin is only about 30% as efficient as its synthetic analogues, RAD III (3c) and SAD (2) (Table II). Metabolic Studies, Metabolism in the Presence of Tumor Cell Homogenates and Rat Liver Microsomes. The cell homogenates (P388 cells were sonicated and were incubated at 37° C. with analogues for 16 h. Rat microsomes were harvested from phenobarbital-induced rats by standard procedure. Incubations were carried out for 6 h in the presence of a NADPH-generating system, i.e., glucose-6-phosphate dehydrogenase and glucose 6-phosphate. The metabolites and their water-soluble conjugates were isolated and identified with the use of tritiated analogues.
It was observed that the RAD analogues are metabolized to SAD (2) with the loss of oxazole ring. […] In tumor cells, a larger fraction of SAD (2) (30-50%) remains unmetabolized. SAD is found to form glucuronide and sulfate conjugates only in tumor cells. […] Isolation of SAD from RAD analogues is a very important step, because SAD is found to be a potent and effective antitumor agent in several murine tumor systems (Tables V-XII).

B16 melanoma = experiment: In vivo antitumor activity against B16 melanoma; set-up: species or system BDF1 mice; settings: for % ILS / survivors on day 65/total injected / MST (range), median survival time: at optimal dose, ip days 1, 5, 9; for MST (range), median survival time: range of days of death; for optimal dose: ip, days 1, 5, 9
Method: ^a 0.2 mL of 1:5 (weight/volume) brei of B16 melanoma implanted
ip on day 0 in groups of nine BDF1 mice. Drugs administered ip^b
MST (range), median survival time in days (range of days for death of
individual animal). ^c % ILS (surv), percent increase in life span
(survivors on day 65/total injected).

colon 38 adenocarcinoma = experiment: Activity against advanced colon carcinoma C38 tumor; format: in vivo, CDF1 mice; settings: for % inhibn of tumor: tumors measured day 21
Method: In view of favorable activity agianst colon 26 carcinoma, further experiments using the active analogues were carried out on the advanced colon adenocarcinomas of mouse colon 38. […] The superiority of RAD III and SAD over AMD in inhibiting colon 38 carcinoma is evident from the data of both tumor weight inhibition and increases in survival time of the treated over nontreated mice and the larger number of long-term survivors produced by these analogues.
^a CDF1 mice were injected sc with colon 38 adenocarcinoma
fragments (70 mg) and treated with drugs with iv injections on day 1, 5,
and 9 following tumor imoplantation on day 0. ^b [100 (tumor weight o
treated mice/tumor weight of untreated mice)] × 100; data pooled
from two experiments, tumors measured on day 21 after implantation ^c
(Median survival time of treated mice/median survival of untreated mice)
× 100; in parenthesis, number of over 100 day survivors/number of […]

mammary MX-1 = experiment: Treatment of mammary MX-1 tumor; format: in vivo; settings: at the doses tested
lung LX-1 = experiment: Treatment of lung LX-1 tumor; format: in vivo; settings: at the doses tested
P388 Leukemia = experiment: Minimum effective dose in P388 tumor bearing mice; format: in vivo; settings: for therapeutic index MTD/MED: MTD in normal BDF1 mice / MED in P388 tumor bearing mice; for MED (minimum effective dose), dose giving 45% increase in life span over control: ip once on days 1, 5, and 9, from plotted log-dose response data
From the text: ^a Drugs administered ip once on days 1, 5, and 9 starting 1 day afte
tumor implantation. Determinations were made from analysis of plotted
logdose response data. ^b MED (minimum effective dose) is the dose
(milligram/killogram) providing an increase in life span of 45% over

[3] = system: human colon carcinoma HT-29 cell line; experiment: Cell viability by soft agar cloning; format: cell-based; settings: 2 h treatment at 37° C., from plot of concentration vs colony formation
Method: Furthermore, the activity of the analogues against a human colon carcinoma HT-29 cell line in culture was evaluated. After the cells were treated for 2 h with 0.01-10.0 uM of the drugs at 37° C., the cells were washed with ice-cold PBS (phosphate buffered saline), and the cell viability was assessed by soft agar cloning. Cells viability was expressed as the percentage of colonies from the drug-treated cells relative to control cells after correcting for the cloning efficiency, which ranged from 60% to 80%.

[4] = dose 0.075 mg/kg iv days 1, 5, 9
[5] = dose 0.15 mg/kg iv days 1, 5, 9
[6] = dose 0.30 mg/kg iv days 1, 5, 9
[7] = dose 0.45 mg/kg iv days 1, 5, 9
[8] = dose 0.60 mg/kg iv days 1, 5, 9
[9] = dose 1.20 mg/kg iv days 1, 5, 9

SMILES	Percentage of closed circular pBR322 DNA cleaved [1]	Percentage of closed circular pBR322 DNA cleaved ([1]; concn 100 M (so in the source))	percent unconverted drug [2]	% ILS (B16 melanoma)	survivors on day 65/total injected (B16 melanoma)	MST (range), median survival time (B16 melanoma)	optimal dose (B16 melanoma)	% T/C (median survival time) (colon 38 adenocarcinoma; [5])	% inhibn of tumor (colon 38 adenocarcinoma; [5])	% T/C (median survival time) (colon 38 adenocarcinoma; [6])	% inhibn of tumor (colon 38 adenocarcinoma; [6])	% T/C (median survival time) (colon 38 adenocarcinoma; [8])	% inhibn of tumor (colon 38 adenocarcinoma; [8])	response of mammary MX-1 to treatment (mammary MX-1)	response of lung LX-1 to treatment (lung LX-1)	therapeutic index MTD/MED (P388 Leukemia)	MED (minimum effective dose), dose giving 45% increase in life span over control (P388 Leukemia)	LD90, drug concentration producing 90% reduction in cell viability [3]	over 100 day survivors/number of mice (colon 38 adenocarcinoma; [8])	% T/C (median survival time) (colon 38 adenocarcinoma; [9])	also measured
Cc1c2oc3c(C)ccc(C(=O)N[C@@H]4C(=O)N[C@H](C(C)C)C(=O)N5CCC[C@H]5C(=O)N(C)CC(=O)N(C)[C@@H](C(C)C)C(=O)O[C@@H]4C)c3nc-2c(C(=O)N[C@@H]2C(=O)N[C@H](C(C)C)C(=O)N3CCC[C@H]3C(=O)N(C)CC(=O)N(C)[C@@H](C(C)C)C(=O)O[C@@H]2C)c(N)c1=O [AMD (1), Actinomycin D] (I: T[dV]P[Sar][NMeV] / II: T[dV]P[Sar][NMeV]; ester I:1-I:C, II:1-II:C; linker I:N-II:N via Actinocin(9to1))	10%	22%	100%	48%	2/9	43(36-54) days	250 μg/kg per inj	107%	30%	134%	67%	103%	89%	practically ineffective	practically ineffective	4	0.0625 milligram/killogram	–	–	–	DNA cleaving efficiency relative to RAD III (3c) and SAD (2) [1]: about 30%; % T/C (median survival time) (colon 38 adenocarcinoma; [4]): 100%; % inhibn of tumor (colon 38 adenocarcinoma; [4]): 30%; % T/C (median survival time) (colon 38 adenocarcinoma; [7]): 170%; % inhibn of tumor (colon 38 adenocarcinoma; [7]): 83%
Cc1c2oc3c(C)c4oc(-c5ccccc5)nc4c(C(=O)N[C@@H]4C(=O)N[C@H](C(C)C)C(=O)N5CCC[C@H]5C(=O)N(C)CC(=O)N(C)[C@@H](C(C)C)C(=O)O[C@@H]4C)c3nc-2c(C(=O)N[C@@H]2C(=O)N[C@H](C(C)C)C(=O)N3CCC[C@H]3C(=O)N(C)CC(=O)N(C)[C@@H](C(C)C)C(=O)O[C@@H]2C)c(N)c1=O [RAD II (3b)]	–	–	–	103%	5/9	59(53-59) days	300 μg/kg per inj	103%	29%	137%	70%	170%	83%	–	–	67	0.03 milligram/killogram	0.2 µM	3/9	103%	over 100 day survivors/number of mice (colon 38 adenocarcinoma; [5]): 1/9; over 100 day survivors/number of mice (colon 38 adenocarcinoma; [9]): 2/9; % inhibn of tumor (colon 38 adenocarcinoma; [9]): 88%
Cc1c2oc3c(C)c4oc(CC(=O)NCCCCN)nc4c(C(=O)N[C@@H]4C(=O)N[C@H](C(C)C)C(=O)N5CCC[C@H]5C(=O)N(C)CC(=O)N(C)[C@@H](C(C)C)C(=O)O[C@@H]4C)c3nc-2c(C(=O)N[C@@H]2C(=O)N[C@H](C(C)C)C(=O)N3CCC[C@H]3C(=O)N(C)CC(=O)N(C)[C@@H](C(C)C)C(=O)O[C@@H]2C)c(N)c1=O [RAD III (3c)]	40%	58%	20.0 ± 2.5%	114%	6/9	62(53-61) days	300 μg/kg per inj	–	–	170%	80%	250%	93%	practically ineffective	practically ineffective	70	0.05 milligram/killogram	5.0 µM	6/9	231%	Percentage of closed circular pBR322 DNA cleaved ([1]; concn 25 M (so in the source)): 45%; Percentage of closed circular pBR322 DNA cleaved ([1]; concn 50 M (so in the source)): 50%; percent isolated: tissue bound [2]: 5.0 ± 1.0%; percent isolated: unidentified metabolite [2]: 5.0 ± 2.0%; percent metabolite isolated: SAD [2]: 20.0 ± 2.0%; percent metabolite isolated: SAD-glucuronide and/or sulfate [2]: 40.0 ± 5.5%; percent metabolite isolated: protein conjugates [2]: 8.0 ± 2.0%; over 100 day survivors/number of mice (colon 38 adenocarcinoma; [6]): 1/9; over 100 day survivors/number of mice (colon 38 adenocarcinoma; [9]): 3/9; % inhibn of tumor (colon 38 adenocarcinoma; [9]): 94%; activity relative to AMD at equivalent doses (colon 38 adenocarcinoma; every 4 days, three times, from day 1 after implant): about 150%
